Assay results reported in ChEMBL document CHEMBL1649156, “Antianaerobic activity of sulopenem compared to six other agents” (2009).

How the values were obtained:
Format in all cases: functional
Prevotella nigrescens = assay: Antimicrobial activity in Prevotella nigrescens by CLSI agar dilution method in presence of Tazobactam
Prevotella disiens = assay: Antimicrobial activity in Prevotella disiens by CLSI agar dilution method in presence of Tazobactam
[1] = test system: Parabacteroides distasonis; assay: Antimicrobial activity in Bacteroides distasonis by CLSI agar dilution method in presence of Tazobactam
Fusobacterium varium = assay: Antimicrobial activity in Fusobacterium varium by CLSI agar dilution method in presence of Tazobactam
[2] = test system: Peptoniphilus asaccharolyticus; assay: Antimicrobial activity in Peptoniphilus asaccharolyticus by CLSI agar dilution method in presence of Tazobactam
Hoylesella oralis = assay: Antimicrobial activity in Prevotella oralis group by CLSI agar dilution method in presence of Tazobactam
Thomasclavelia ramosa = assay: Antimicrobial activity in Clostridium ramosum by CLSI agar dilution method in presence of Tazobactam
Lactobacillus = assay: Antimicrobial activity in Lactobacillus by CLSI agar dilution method in presence of Tazobactam
Clostridium cadaveris = assay: Antimicrobial activity in Clostridium cadaveris by CLSI agar dilution method in presence of Tazobactam
Prevotella bivia = assay: Antimicrobial activity in Prevotella bivia by CLSI agar dilution method in presence of Tazobactam
Clostridioides difficile = assay: Antimicrobial activity in Clostridium difficile by CLSI agar dilution method in presence of Tazobactam
Prevotella veroralis = assay: Antimicrobial activity in Prevotella veroralis by CLSI agar dilution method in presence of Tazobactam
Actinomyces = assay: Antimicrobial activity in Actinomyces by CLSI agar dilution method in presence of Tazobactam
Bacteroides ovatus = assay: Antimicrobial activity in Bacteroides ovatus by CLSI agar dilution method in presence of Tazobactam
Clostridium perfringens = assay: Antimicrobial activity in Clostridium perfringens by CLSI agar dilution method in presence of Tazobactam
Tissierella praeacuta = assay: Antimicrobial activity in Clostridium hastiforme by CLSI agar dilution method in presence of Tazobactam
[Clostridium] innocuum = Antimicrobial activity in Clostridium innocuum by CLSI agar dilution method in presence of Tazobactam
Bifidobacterium = assay: Antimicrobial activity in Bifidobacterium by CLSI agar dilution method in presence of Tazobactam
Finegoldia magna = assay: Antimicrobial activity in Finegoldia magna by CLSI agar dilution method in presence of Tazobactam
[3] = test system: Fusobacterium necrophorum; assay: Antimicrobial activity in Fusobacterium necrophorum by CLSI agar dilution method in presence of Tazobactam
Clostridium sp. = assay: Antimicrobial activity in Clostridium sp. by CLSI agar dilution method in presence of Tazobactam
Prevotella salivae = assay: Antimicrobial activity in Prevotella salivae by CLSI agar dilution method in presence of Tazobactam; settings: Segatella salivae
Prevotella corporis = assay: Antimicrobial activity in Prevotella corporis by CLSI agar dilution method in presence of Tazobactam
Anaerococcus tetradius = assay: Antimicrobial activity in Anaerococcus tetradius by CLSI agar dilution method in presence of Tazobactam
Prevotella buccae = assay: Antimicrobial activity in Prevotella buccae by CLSI agar dilution method in presence of Tazobactam; settings: Segatella buccae
[4] = test system: Enterocloster clostridioformis; assay: Antimicrobial activity in Clostridium clostridioforme by CLSI agar dilution method in presence of Tazobactam
[5] = test system: Bacteroides thetaiotaomicron; assay: Antimicrobial activity in Bacteroides thetaiotaomicron by CLSI agar dilution method in presence of Tazobactam
[6] = test system: Peptostreptococcus anaerobius; assay: Antimicrobial activity in Peptostreptococcus anaerobius by CLSI agar dilution method in presence of Tazobactam
[7] = test system: Prevotella melaninogenica; assay: Antimicrobial activity in Prevotella melaninogenica by CLSI agar dilution method in presence of Tazobactam
Prevotella denticola = assay: Antimicrobial activity in Prevotella denticola by CLSI agar dilution method in presence of Tazobactam
Anaerococcus prevotii = assay: Antimicrobial activity in Anaerococcus prevotii by CLSI agar dilution method in presence of Tazobactam
Eggerthella lenta = assay: Antimicrobial activity in Eggerthella lenta by CLSI agar dilution method in presence of Tazobactam
Hoylesella loescheii = assay: Antimicrobial activity in Prevotella loescheii by CLSI agar dilution method in presence of Tazobactam
Prevotella sp. = assay: Antimicrobial activity in Prevotella sp.by CLSI agar dilution method in presence of Tazobactam
[8] = test system: Paeniclostridium sordellii; assay: Antimicrobial activity in Clostridium sordellii by CLSI agar dilution method in presence of Tazobactam; settings: Paraclostridium sordellii
Cutibacterium acnes = assay: Antimicrobial activity in Propionibacterium acnes by CLSI agar dilution method in presence of Tazobactam
Prevotella intermedia = assay: Antimicrobial activity in Prevotella intermedia by CLSI agar dilution method in presence of Tazobactam
Clostridium tertium = assay: Antimicrobial activity in Clostridium tertium by CLSI agar dilution method in presence of Tazobactam
Bacteroides stercoris = assay: Antimicrobial activity in Bacteroides stercoris by CLSI agar dilution method in presence of Tazobactam
Clostridium butyricum = assay: Antimicrobial activity in Clostridium butyricum by CLSI agar dilution method in presence of Tazobactam
Bacteroides uniformis = assay: Antimicrobial activity in Bacteroides uniformis by CLSI agar dilution method in presence of Tazobactam
[9] = test system: Porphyromonas asaccharolytica; assay: Antimicrobial activity in Porphyromonas asaccharolytica by CLSI agar dilution method in presence of Tazobactam
Prevotella bergensis = assay: Antimicrobial activity in Prevotella bergensis by CLSI agar dilution method in presence of Tazobactam; settings: Hallella bergensis
Porphyromonas gingivalis = assay: Antimicrobial activity in Porphyromonas gingivalis by CLSI agar dilution method in presence of Tazobactam
Fusobacterium mortiferum = assay: Antimicrobial activity in Fusobacterium mortiferum by CLSI agar dilution method in presence of Tazobactam
Prevotella baroniae = assay: Antimicrobial activity in Prevotella baroniae by CLSI agar dilution method in presence of Tazobactam; settings: Segatella baroniae
[10] = test system: Paraclostridium bifermentans; assay: Antimicrobial activity in Clostridium bifermentans by CLSI agar dilution method in presence of Tazobactam
Bacteroides fragilis = assay: Antimicrobial activity in Bacteroides fragilis by CLSI agar dilution method in presence of Tazobactam
Phocaeicola vulgatus = assay: Antimicrobial activity in Bacteroides vulgatus by CLSI agar dilution method in presence of Tazobactam
Fusobacterium nucleatum = assay: Antimicrobial activity in Fusobacterium nucleatum by CLSI agar dilution method in presence of Tazobactam
Parvimonas micra = assay: Antimicrobial activity in Micromonas micros by CLSI agar dilution method in presence of Tazobactam

CCN1CCN(C(=O)N[C@@H](C(=O)N[C@@H]2C(=O)N3[C@@H]2SC(C)(C)[C@@H]3C(=O)O)c2ccccc2)C(=O)C1=O [PIPERACILLIN]
4 µg/mL: MIC50 [1] | MIC90 [1] | MIC50 (Fusobacterium varium) | MIC90 (Bacteroides ovatus) | MIC (Clostridium tertium)
0.25 µg/mL: MIC90 (Bifidobacterium) | MIC90 (Finegoldia magna) | MIC90 (Anaerococcus tetradius) | MIC [6] | MIC50 [6] | MIC50 (Cutibacterium acnes) | MIC (Fusobacterium mortiferum) | MIC50 (Fusobacterium mortiferum)
8 µg/mL: MIC90 (Fusobacterium varium) | MIC (Clostridioides difficile) | MIC50 (Clostridioides difficile) | MIC [4] | MIC50 [5] | MIC50 (Clostridium tertium)
2 µg/mL: MIC50 (Lactobacillus) | MIC90 (Lactobacillus) | MIC50 (Bacteroides ovatus) | MIC (Tissierella praeacuta) | MIC90 (Clostridium sp.) | MIC90 (Bacteroides fragilis) | MIC50 (Phocaeicola vulgatus)
≤ 0.125 µg/mL: MIC (Prevotella nigrescens) | MIC50 (Prevotella nigrescens) | MIC90 (Prevotella nigrescens) | MIC (Prevotella disiens) | MIC50 (Prevotella disiens) | MIC [2] | MIC50 [2] | MIC (Hoylesella oralis) | MIC (Thomasclavelia ramosa) | MIC (Clostridium cadaveris) | MIC (Prevotella bivia) | MIC50 (Prevotella bivia) | MIC90 (Prevotella bivia) | MIC (Prevotella veroralis) | MIC (Clostridium perfringens) | MIC50 (Clostridium perfringens) | MIC ([Clostridium] innocuum) | MIC (Bifidobacterium) | MIC50 (Bifidobacterium) | MIC (Finegoldia magna) | MIC50 (Finegoldia magna) | MIC [3] | MIC50 [3] | MIC (Prevotella salivae) | MIC (Prevotella corporis) | MIC50 (Prevotella corporis) | MIC (Anaerococcus tetradius) | MIC50 (Anaerococcus tetradius) | MIC (Prevotella buccae) | MIC50 (Prevotella buccae) | MIC90 (Prevotella buccae) | MIC [7] | MIC50 [7] | MIC90 [7] | MIC (Prevotella denticola) | MIC50 (Prevotella denticola) | MIC90 (Prevotella denticola) | MIC (Anaerococcus prevotii) | MIC (Hoylesella loescheii) | MIC (Prevotella sp.) | MIC [8] | MIC (Prevotella intermedia) | MIC50 (Prevotella intermedia) | MIC90 (Prevotella intermedia) | MIC (Bacteroides stercoris) | MIC [9] | MIC (Prevotella bergensis) | MIC (Porphyromonas gingivalis) | MIC (Prevotella baroniae) | MIC (Fusobacterium nucleatum) | MIC50 (Fusobacterium nucleatum) | MIC90 (Fusobacterium nucleatum) | MIC (Parvimonas micra) | MIC50 (Parvimonas micra) | MIC90 (Parvimonas micra)
0.5 µg/mL: MIC (Actinomyces) | MIC90 (Clostridium perfringens) | MIC (Clostridium butyricum) | MIC (Bacteroides uniformis) | MIC [10] | MIC50 (Bacteroides fragilis)
1 µg/mL: MIC50 (Actinomyces) | MIC50 (Clostridium sp.) | MIC90 (Cutibacterium acnes) | MIC50 (Bacteroides stercoris) | MIC50 (Bacteroides uniformis) | MIC90 (Fusobacterium mortiferum)
16 µg/mL: MIC90 (Clostridioides difficile) | MIC90 [5] | MIC90 [6] | MIC50 (Eggerthella lenta) | MIC90 (Eggerthella lenta) | MIC90 (Phocaeicola vulgatus)
